We go through 28 compounds from patent US5880284A, “Cyclic urea derivatives, pharmaceutical compositions containing these compounds and processes for preparing them” (Dr. Karl Thomae GmbH, priority 1992, dated 1999).

One series deals with thrombocyte aggregation. Put plainly: Inhibition of collagen-induced platelet aggregation in platelet-rich plasma (Born and Cross). Type of series: cell-based. The following applies: Homo sapiens, 10 min, read-out: Inhibition of platelet aggregation EC50.
The target of the next series is human thrombocytes. Briefly: Inhibition of binding of 3H-BIBU 52 to human thrombocytes (fibrinogen-binding test). Particulars: 3H-BIBU 52 final concentration 5 nM, plasma, 20 minutes, ambient temperature; 50% inhibition of binding.
Series [1] can be described thus: Tolerability after intravenous administration to mice. In kind it is in vivo.
Another series relates to thrombocytes. Briefly: Collagen-induced aggregation of thrombocytes ex vivo after oral administration. Particulars: rhesus monkey, oral administration of 1 mg/kg. Type of series: in vivo. Here is the method:
Moreover, the compound of Example 6(14), for example, inhibits the collagen-induced aggregation of thrombocytes in the rhesus monkey ex vivo after the oral administration of 1 mg/kg for up to four hours.

The mark [2] stands for this setting: collagen-induced, platelet-rich plasma, 10 minutes incubation at 37° C., 50% change in optical density.

pEC50, pIC50: −log10 of the molar value. Where a name gives a salt, the structure may show the parent alone. Read-outs that look alike come from different tables or passages of the source.

Procedure for human thrombocytes: Inhibition of Binding of ^3 H-BIBU 52 to Human Thrombocytes
A suspension of human thrombocytes in plasma is incubated with ^3 H-BIBU 52 [=(3S,5S)-5-[(4'-amidino-4-biphenylyl)oxymethyl]-3-[(carboxyl)methyl]-2-pyrrolidinone[^3 -^3 H-4-biphenylyl]] […] The free and bound ligand is separated by centrifuging and quantitatively determined by scintillation counting. From the measurements obtained, the inhibition of ^3 H-BIBU 52 binding by the test substance is determined.
In order to do this, donor blood is taken from an anticubital vein and anticoagulated by trisodium citrate (final concentration 13 mM). The blood is centrifuged for 10 minutes at 170×g and the supernatant platelet-rich plasma (PRP) is removed. The remaining blood is vigorously centrifuged once more in order to obtain plasma. The PRP is diluted 1:10 with autologous plasma. 750 μl are incubated with 50 μl of physiological saline solution, 100 μl of test substance solution, 50 μl of ^4 C-sucrose (3,700 Bq) and 50 μl of ^3 H-BIBU 52 (final concentration: 5 nM) at ambient temperature for 20 minutes. In order to measure non-specific binding, instead of the test substance, 5 μl of BIBU 52 are put in (final concentration: 30 μM). The samples are centrifuged for 20 seconds at 10,000×g and the supernatant is drawn off. 100 μl therof are measured in order to determine the free ligand. The pellet is dissolved in 500 μl of 0.2N NaOH, 450 μl are mixed with 2 ml of scintillator and 25 μl of 5N HCl and measured. The residual plasma remaining in the pellet is determined from the ^14 C content, the bound ligand from the ^3 H measurement. After subtracting the non-specific binding, the pellet activity is plotted against the concentration of the test substance and the concentration for a 50% inhibition of binding is determined.
Procedure for thrombocyte aggregation: The thrombocyte aggregatrion is measured using the Born and Cross method (J. Physiol. 170: 397 (1964)) in platelet-rich plasma taken from health volunteers. To inhibit coagulation the blood is mixed with 3.14% sodium citrate in a ratio by volume of 1:10.
Collagen-induced agaregation
The pattern of the decrease in optical density of the platelet suspension is photometrically measured and recorded after the addition of the aggregation-triggering substance. The rate of aggregation is concluded from the angle of inclination of the density curve. The point on the curve where there is maximum light transmittance is used to calculate the optical density.
The amount of collagen used is as small as possible but sufficient to produce an irreversible reaction curve. Standard commercial collagen produced by Hormonchemie of Munich is used.
Before the addition of the collagen the plasma is incubated for 10 minutes with the substance at 37° C.
From the measurements obtained an EC50 is determined graphically, indicating a 50% change in the optical density in terms of the inhibition of aggregation.

For `NCC1CCc2cc(N3CCN([C@H]4CC[C@H](C(=O)O)CC4)C3=O)ccc2C1` (relative stereo) [1(44), 1-(2-aminomethyl-1,2,3,4-tetrahydro-6-naphthyl)-3-(trans-4-carboxycyclohexyl)-imidazolidin-2-one-hydrochloride], the negative-log EC50 (pEC50) with thrombocyte aggregation (setting [2]) is 6.42.

Regarding `CN1CCC(CCN2CCN(c3ccc(CCC(=O)O)cc3)C2=O)CC1` [Example 15], in the series with thrombocyte aggregation (setting [2]), the negative logarithm of the EC50 (pEC50) is 5.37. For the same compound, at human thrombocytes, the pIC50 was 4.92.

Regarding `Cc1nn(-c2ccc(C(=N)N)cc2)c(=O)n1-c1cccc(CCC(=O)O)c1` [5(2), 2-(4-amidinophenyl)-4-[3-(2-carboxyethyl)phenyl]-5-methyl-4H-1,2,4-triazol-3-one], the negative logarithm of the EC50 (pEC50) in the series on thrombocyte aggregation (setting [2]) was 6.08. The negative-log IC50 (pIC50) at human thrombocytes was 6.14.

For `O=C(O)CO[C@H]1CC[C@H](N2CCN(CCC3CCNCC3)C2=O)CC1` [30(4), 1-[trans-4-[(carboxymethyl)oxy]cyclohexyl]-3-[2-(4-piperidinyl)ethyl]-imidazolidin-2-one-hydrochloride×0.3 H2 O], in the series with thrombocyte aggregation (setting [2]), the negative logarithm of the EC50 (pEC50) was 6.31. The same compound had a pIC50 at human thrombocytes of 6.70.

With `CC1(c2ccc(N3CCN([C@H]4CC[C@H](C(=O)O)CC4)C3=O)cc2)CCNCC1` [24(2), 1-(trans-4-carboxycyclohexyl)-3-[4-(4-methyl-4-piperidinyl)phenyl]-imidazolidin-2-one], the negative-log EC50 (pEC50) in the series with thrombocyte aggregation (setting [2]) was 7.15.

Turning to `Cc1nn(-c2ccc(C(=N)N)cc2)c(=O)n1-c1ccc(CC(C)C(=O)O)cc1` (centres unmarked) [1(1), 2-(4-amidinophenyl)-4-[4-(2-carboxy-1-propyl)phenyl]-5-methyl-4H-1,2,4-triazol-3-one×0.5 water], the “Deaths after intravenous administration” value in series [1] (mouse, in vivo, iv, 30 mg/kg) is recorded as “none of the three animals tested died”. The pEC50 in the series on thrombocyte aggregation (setting [2]) is 7.52. The negative logarithm of the IC50 (pIC50) on human thrombocytes is 9.10.

With `O=C1N(C2CCC(C3CCNCC3)CC2)CCN1[C@H]1CC[C@H](C(=O)O)CC1` (some centres unmarked) [18(2)], in the series with thrombocyte aggregation (setting [2]), the pEC50 was 6.96.

Take `CCCC(Cc1ccc(-n2c(C)nn(CCC3CCNCC3)c2=O)cc1)C(=O)O` (centres unmarked) [1(8), 4-[4-(2-carboxy-1-pentyl)phenyl]-5-methyl-2-(2-(4-piperidinyl)ethyl)-4H-1,2,4-triazol-3-one-hydrochloride]: the pEC50 in the series with thrombocyte aggregation (setting [2]) was 5.92. In addition, the negative-log IC50 (pIC50) at human thrombocytes was 6.12.

On to `N=C(N)c1ccc(N2CCN(c3ccc(CCc4nnn[nH]4)cc3)C2=O)cc1` [2(5), 1-(4-amidinophenyl)-3-[4-[2-(5-tetrazolyl)ethyl]phenyl]-imidazolidin-2-one], for which the pEC50 with thrombocyte aggregation (setting [2]) was 5.49. This compound gave a pIC50 on human thrombocytes of 5.46.

`Cl.O=C(O)CC[C@H]1CC[C@H](N2CCN(CCC3CCNCC3)C2=O)CC1` [1(39), 1-[trans-4-(2-carboxyethyl)cyclohexyl]-3-[2-(4-piperidinyl)ethyl]-imidazolidin-2-one-hydrochloride]: the “Deaths after intravenous administration” value in series [1] (mouse, in vivo, iv, 30 mg/kg) is “none of the three animals tested died”. Further, the pEC50 in the series on thrombocyte aggregation (setting [2]) is 7.07. For the same compound, the pIC50 at human thrombocytes is 7.60.

With `CCCCS(=O)(=O)NC(Cc1ccc(N2CCN(c3ccc(C(=N)N)cc3)C2=O)cc1)C(=O)O` (centres unmarked) [1(21), 1-(4-amidinophenyl)-3-[4-[2-(n-butylsulfonylamino)-2-carboxy-ethyl]phenyl]-imidazolidin-2-one-hydrochloride], in the series on thrombocyte aggregation (setting [2]), the pEC50 is 7.44. The compound also showed a pIC50 on human thrombocytes of 9.00.

With `NCC1CCC(N2CCN(c3ccc(CCC(=O)O)cc3)C2=O)CC1` (centres unmarked) [4(5), 1-[4-(aminomethyl)cyclohexyl]-3-[4-(2-carboxyethyl)phenyl]-imidazolidin-2-one], the pEC50 with thrombocyte aggregation (setting [2]) is 5.48. In addition, the pIC50 at human thrombocytes was 5.39.

As to `Cc1nn(-c2ccc(C(=N)N)cc2)c(=O)n1[C@H]1CC[C@@H](CCC(=O)O)CC1` [Example 4, 2-(4-Amidinophenyl)-4-[cis-4-(2-carboxyethyl)cyclo-hexyl]-5-methyl-4H-1,2,4-triazol-3-one], in the series with thrombocyte aggregation (setting [2]), the negative-log EC50 (pEC50) was 6.89.

As to `CCOC(=O)[C@H]1CC[C@H](N2CCN(c3ccc(C4CCNCC4)cc3)C2=O)CC1` [6(40), 1-[trans-4-(ethoxycarbonyl)cyclohexyl]-3-[4-(4-piperidinyl)phenyl]-imidazolidin-2-one-hydrochloride], the negative-log EC50 (pEC50) in the series on thrombocyte aggregation (setting [2]) is 6.62. This compound had a negative logarithm of the IC50 (pIC50) at human thrombocytes of 5.60.

Consider `N#CC1(c2ccc(N3CCN(CCCCC(=O)O)C3=O)cc2)CCNCC1` [24(1), 1-(4-carboxybutyl)-3-[4-(4-cyano-4-piperidinyl)-phenyl]-imidazolidin-2-one], for which the negative-log EC50 (pEC50) in the series with thrombocyte aggregation (setting [2]) was 6.03. The pIC50 at human thrombocytes was 6.82.

As to `NC1CCCc2cc(N3CCN(c4ccc(CCC(=O)O)cc4)C3=O)ccc21` (centres unmarked) [1(3), 1-(1-amino-1,2,3,4-tetrahydronaphthalin-6-yl)-3-[4-(2-carboxyethyl)phenyl]-imidazolidin-2-one-hydrochloride], the pEC50 in the series on thrombocyte aggregation (setting [2]) is 6.57. In addition, the negative logarithm of the IC50 (pIC50) on human thrombocytes is 7.19.

On to `CCOC(=O)CCc1ccc(N2CCN(CCC3CCNCC3)C2=O)cc1` [6(34), 1-[4-[2-(ethoxycarbonyl)ethyl]phenyl]-3-(2-(4-piperidinyl)ethyl]-imidazolidin-2-one-hydrochloride], for which the pEC50 with thrombocyte aggregation (setting [2]) is 6.46. In addition, the pIC50 on human thrombocytes is 4.68.

As to `O=C1N(c2ccc(C34CCN(CC3)CC4)cc2)CCN1[C@H]1CC[C@H](C(=O)O)CC1` [1(50), 1-(trans-4-carboxycyclohexyl)-3-[4-(4-quinuclidinyl)-phenyl]-imidazolidin-2-one-hydrochloride×1.2 H2 O], in the series with thrombocyte aggregation (Platelet), the pEC50 is 6.77. The same compound had a negative-log IC50 (pIC50) at human thrombocytes of 7.19.

For `Cl.O=C1N(c2ccc(C3CCNCC3)cc2)CCN1[C@H]1CC[C@H](C(=O)O)CC1` [Example 17, 1-(trans-4-Carboxycyclohexyl)-3-[4-(4-piperidinyl)phenyl]-imidazolidin-2-one-hydrochloride], in series [1] (mouse, in vivo, iv, 30 mg/kg), the “Deaths after intravenous administration” value is listed as “none of the three animals tested died”. Moreover, the negative-log EC50 (pEC50) in the series with thrombocyte aggregation (setting [2]) is 7.37. This compound showed a negative-log IC50 (pIC50) at human thrombocytes of 7.80.

In the case of `N=C(N)c1ccc(-n2ncn([C@H]3CC[C@H](CCC(=O)O)CC3)c2=O)cc1` [4(4), 2-(4-amidinophenyl)-4-[trans-4-(2-carboxyethyl)-cyclohexyl]-4H-1,2,4-triazol-3-one], the pEC50 in the series on thrombocyte aggregation (setting [2]) was 7.52. This compound had a pIC50 on human thrombocytes of 8.54.

Turning to `O=C(O)C=Cc1ccc(N2CCN(CCC3CCNCC3)C2=O)c(F)c1` [4(13), 1-[4-(2-carboxyethenyl)-2-fluoro-phenyl]-3-[2-(4-piperidinyl)ethyl]-imidazolidin-2-one×1.1 HCl×1 H2 O], the negative-log EC50 (pEC50) with thrombocyte aggregation (setting [2]) was 6.52. Also, the pIC50 on human thrombocytes is 6.60.

On to `O=C(O)CCc1ccc(N2CCN(CCC3CCNCC3)C2=O)cc1` [1(6), 1-[4-(2-carboxyethyl)phenyl]-3-[2-(4-piperidinyl)ethyl]-imidazolidin-2-one-hydrochloride×water], for which the “Deaths after intravenous administration” value in series [1] (mouse, in vivo, iv, 30 mg/kg) is recorded as “none of the three animals tested died”. The pEC50 with thrombocyte aggregation (setting [2]) is 7.00. On human thrombocytes, the pIC50 was 7.74.

For the compound `CCOC(=O)CCc1ccc(N2CCN(CCC34CCN(CC3)CC4)C2=O)cc1` [6(37), 1-[2-(4-quinuclidinyl)ethyl]-3-[4-[2-(ethoxycarbonyl)-ethyl]phenyl]-imidazolidin-2-one-hydro-chloride], the negative-log EC50 (pEC50) with thrombocyte aggregation (Platelet) is 6.42. This compound also had a negative logarithm of the IC50 (pIC50) at human thrombocytes of 5.15.

As for `N=C(N)c1ccc(-n2nc(-c3ccccc3)n(-c3ccc(CCC(=O)O)cc3)c2=O)cc1` [1(2), 2-(4-amidinophenyl)-4-[4-(2-carboxyethyl)phenyl]-5-phenyl-4H-1,2,4-triazol-3-one×2 water], the negative logarithm of the EC50 (pEC50) in the series on thrombocyte aggregation (setting [2]) was 7.15. Besides, the pIC50 at human thrombocytes is 8.92.

Turning to `Cc1nn(CCC2CCNCC2)c(=O)n1-c1ccc(CCC(=O)O)cc1` [1(4), 4-[4-(2-carboxyethyl)phenyl]-5-methyl-2-[2-(4-piperidinyl)ethyl]-4H-1,2,4-triazol-3-one-toluenesulphonate×water], the “Deaths after intravenous administration” value in series [1] (mouse, in vivo, iv, 30 mg/kg) is listed as “none of the three animals tested died”. In the series on thrombocyte aggregation (setting [2]), the pEC50 is 6.30. This compound had a negative-log IC50 (pIC50) at human thrombocytes of 6.55.

As to `Cl.O=C(O)CCc1ccc(N2CCN(CCC34CCN(CC3)CC4)C2=O)cc1` [Example 26, 1-[4-(2-Carboxyethyl)phenyl]-3-[2-(4-quinuclidinyl)ethyl]-imidazolidin-2-one-hydrochloride], the “Deaths after intravenous administration” value in series [1] (mice, 30 mg/kg intravenous, three animals) is “none of the three animals tested died”. Besides, the pEC50 in the series with thrombocyte aggregation (Platelet) was 7.08. The compound further showed a negative-log IC50 (pIC50) at human thrombocytes of 7.59.

As for `CCOC(=O)CC[C@H]1CC[C@H](N2CCN(CCC3CCNCC3)C2=O)CC1` [6(35), 1-[trans-4-[2-(ethoxycarbonyl)ethyl]cyclohexyl]-3-[2-(4-piperidinyl)ethyl]-imidazolidin-2-one-hydrochloride], the pEC50 in the series with thrombocyte aggregation (setting [2]) is 6.20. The same compound had a pIC50 at human thrombocytes of 5.24.

For `Cc1nn(-c2ccc(C(=N)N)cc2)c(=O)n1-c1ccc(CCC(=O)OC2CCCCC2)cc1.Cl` [Example 6(14), 2-(4-amidinophenyl)-4-[4-[2-(cyclohexyloxycarbonyl)-ethyl]phenyl]-5-methyl-4H-1,2,4-triazol-3-one-hydrochloride], the pEC50 in the series on thrombocyte aggregation (setting [2]) was 7.40. The same compound showed a negative logarithm of the IC50 (pIC50) on human thrombocytes of 6.60. The “Duration of inhibition of collagen-induced aggregation of thrombocytes ex vivo” value in the series on thrombocytes was “up to four”.
